Measured values reported in PubChem BioAssay (NCI).
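Five concentrations, 48 hours, 96-well plates. At the TGI there is no net growth.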

Test system: 786-0 renal
Experiment: inhibition of tumour cell growth, NCI panel, 48 h

| Compound | TGI [µM] |
| --- | --- |
| Cc1nc(C)c(N2CCN([N+](=O)[O-])CC2)c(=O)[nH]1 | > 100 |
| Cc1nn(-c2ccccc2)c2c1C(c1cc3ccccc3nc1Cl)NC(=O)N2 (centres undefined) | 35.2 |
| Cc1cc(/N=C/c2ccc(N(C)C)cc2)n(-c2ccccc2)n1 | > 100 |
| C/C(C[n+]1ccccc1)=N\N=C(N)N | > 100 |
| O=[N+]([O-])C(=C(Nc1cccc2cccnc12)Nc1cccc2cccnc12)C(Cl)=C(Cl)Cl | > 100 |
| O=C1NC2c3c(I)sc(I)c3C(O)C2O1 (centres undefined) | > 100 |
| NCCCN1c2ccccc2Sc2ccc(Cl)cc21 | > 10 |
| CCOC(=O)c1cccc(N=Nc2nc[nH]c2/C=C/C(=O)OC)c1 | > 100 |
| Cc1cccc(C)c1NC(=O)C(Cc1c[nH]c2ccccc12)NC(=O)OCc1ccccc1 (centres undefined) | 53.6 |
| S=C1NC2=C(CSC/C2=C\c2cccc(Br)c2)C(c2cccc(Br)c2)N1 (centres undefined) | > 100 |
| Clc1ccc(-c2nnc3sc4nc5ccccc5c-4nn23)c(Cl)c1 | > 100 |
| N#CC(C#N)=C1SC(=Nc2ccccc2)C(=Nc2ccccc2)N1c1ccccc1 | 60.8 |
| Cc1ccc(C2=CC(=O)OC(C[P+](c3ccccc3)(c3ccccc3)c3ccccc3)(c3ccccc3)O2)cc1 (centres undefined) | 35.7 |
| O=C1c2cc(-c3ccccc3)cnc2S(=O)(=O)N1c1ccc(Br)cc1 | > 100 |
| CC(=NNC(=S)Nc1ccccc1)c1cccc(C(C)=NNC(=S)Nc2ccccc2)n1 | 35.4 |
| C=CCc1cc(-c2nc(=S)[nH][nH]2)ccc1N=NNc1ccc(C(=O)O)cc1 | > 100 |
| CC(C)(C)[Si](C)(C)OCC1OC(n2ccc(=O)[nH]c2=O)C(O[Si](C)(C)C(C)(C)C)/C1=C/C#N (centres undefined) | > 100 |
| Nc1ccc(N=Nc2c(S(=O)(=O)O)cc3ccccc3c2S(=O)(=O)O)cc1 | > 100 |

Test system: A498 renal
Experiment: inhibition of tumour cell growth, NCI panel, 48 h

| Compound | TGI [µM] |
| --- | --- |
| Cc1nc(C)c(N2CCN([N+](=O)[O-])CC2)c(=O)[nH]1 | > 100 |
| Cc1nn(-c2ccccc2)c2c1C(c1cc3ccccc3nc1Cl)NC(=O)N2 (centres undefined) | 62 |
| Cc1cc(/N=C/c2ccc(N(C)C)cc2)n(-c2ccccc2)n1 | 84.5 |
| C/C(C[n+]1ccccc1)=N\N=C(N)N | > 100 |
| O=[N+]([O-])C(=C(Nc1cccc2cccnc12)Nc1cccc2cccnc12)C(Cl)=C(Cl)Cl | > 100 |
| O=C1NC2c3c(I)sc(I)c3C(O)C2O1 (centres undefined) | > 100 |
| NCCCN1c2ccccc2Sc2ccc(Cl)cc21 | > 10 |
| CCOC(=O)c1cccc(N=Nc2nc[nH]c2/C=C/C(=O)OC)c1 | 66.8 |
| Cc1cccc(C)c1NC(=O)C(Cc1c[nH]c2ccccc12)NC(=O)OCc1ccccc1 (centres undefined) | 69.8 |
| S=C1NC2=C(CSC/C2=C\c2cccc(Br)c2)C(c2cccc(Br)c2)N1 (centres undefined) | > 100 |
| Clc1ccc(-c2nnc3sc4nc5ccccc5c-4nn23)c(Cl)c1 | > 100 |
| N#CC(C#N)=C1SC(=Nc2ccccc2)C(=Nc2ccccc2)N1c1ccccc1 | > 92.2 |
| Cc1ccc(C2=CC(=O)OC(C[P+](c3ccccc3)(c3ccccc3)c3ccccc3)(c3ccccc3)O2)cc1 (centres undefined) | 29.1 |
| O=C1c2cc(-c3ccccc3)cnc2S(=O)(=O)N1c1ccc(Br)cc1 | > 100 |
| CC(=NNC(=S)Nc1ccccc1)c1cccc(C(C)=NNC(=S)Nc2ccccc2)n1 | > 80.8 |
| C=CCc1cc(-c2nc(=S)[nH][nH]2)ccc1N=NNc1ccc(C(=O)O)cc1 | > 100 |
| CC(C)(C)[Si](C)(C)OCC1OC(n2ccc(=O)[nH]c2=O)C(O[Si](C)(C)C(C)(C)C)/C1=C/C#N (centres undefined) | 76.6 |
| Nc1ccc(N=Nc2c(S(=O)(=O)O)cc3ccccc3c2S(=O)(=O)O)cc1 | > 100 |

Test system: DU-145 prostate
Experiment: inhibition of tumour cell growth, NCI panel, 48 h

| Compound | TGI [µM] |
| --- | --- |
| Cc1nc(C)c(N2CCN([N+](=O)[O-])CC2)c(=O)[nH]1 | > 100 |
| Cc1nn(-c2ccccc2)c2c1C(c1cc3ccccc3nc1Cl)NC(=O)N2 (centres undefined) | > 100 |
| Cc1cc(/N=C/c2ccc(N(C)C)cc2)n(-c2ccccc2)n1 | > 100 |
| C/C(C[n+]1ccccc1)=N\N=C(N)N | > 100 |
| O=[N+]([O-])C(=C(Nc1cccc2cccnc12)Nc1cccc2cccnc12)C(Cl)=C(Cl)Cl | > 100 |
| O=C1NC2c3c(I)sc(I)c3C(O)C2O1 (centres undefined) | > 100 |
| NCCCN1c2ccccc2Sc2ccc(Cl)cc21 | > 10 |
| CCOC(=O)c1cccc(N=Nc2nc[nH]c2/C=C/C(=O)OC)c1 | > 100 |
| Cc1cccc(C)c1NC(=O)C(Cc1c[nH]c2ccccc12)NC(=O)OCc1ccccc1 (centres undefined) | 51.6 |
| S=C1NC2=C(CSC/C2=C\c2cccc(Br)c2)C(c2cccc(Br)c2)N1 (centres undefined) | > 100 |
| Clc1ccc(-c2nnc3sc4nc5ccccc5c-4nn23)c(Cl)c1 | > 100 |
| N#CC(C#N)=C1SC(=Nc2ccccc2)C(=Nc2ccccc2)N1c1ccccc1 | > 100 |
| Cc1ccc(C2=CC(=O)OC(C[P+](c3ccccc3)(c3ccccc3)c3ccccc3)(c3ccccc3)O2)cc1 (centres undefined) | 30.3 |
| O=C1c2cc(-c3ccccc3)cnc2S(=O)(=O)N1c1ccc(Br)cc1 | > 100 |
| CC(=NNC(=S)Nc1ccccc1)c1cccc(C(C)=NNC(=S)Nc2ccccc2)n1 | > 100 |
| C=CCc1cc(-c2nc(=S)[nH][nH]2)ccc1N=NNc1ccc(C(=O)O)cc1 | > 100 |
| CC(C)(C)[Si](C)(C)OCC1OC(n2ccc(=O)[nH]c2=O)C(O[Si](C)(C)C(C)(C)C)/C1=C/C#N (centres undefined) | > 100 |
| Nc1ccc(N=Nc2c(S(=O)(=O)O)cc3ccccc3c2S(=O)(=O)O)cc1 | > 100 |

Test system: EKVX NSCLC
Experiment: inhibition of tumour cell growth, NCI panel, 48 h

| Compound | TGI [µM] |
| --- | --- |
| Cc1nc(C)c(N2CCN([N+](=O)[O-])CC2)c(=O)[nH]1 | > 100 |
| Cc1nn(-c2ccccc2)c2c1C(c1cc3ccccc3nc1Cl)NC(=O)N2 (centres undefined) | 88.8 |
| Cc1cc(/N=C/c2ccc(N(C)C)cc2)n(-c2ccccc2)n1 | > 100 |
| C/C(C[n+]1ccccc1)=N\N=C(N)N | > 100 |
| O=[N+]([O-])C(=C(Nc1cccc2cccnc12)Nc1cccc2cccnc12)C(Cl)=C(Cl)Cl | > 100 |
| O=C1NC2c3c(I)sc(I)c3C(O)C2O1 (centres undefined) | > 100 |
| NCCCN1c2ccccc2Sc2ccc(Cl)cc21 | > 10 |
| CCOC(=O)c1cccc(N=Nc2nc[nH]c2/C=C/C(=O)OC)c1 | > 100 |
| Cc1cccc(C)c1NC(=O)C(Cc1c[nH]c2ccccc12)NC(=O)OCc1ccccc1 (centres undefined) | 45.3 |
| S=C1NC2=C(CSC/C2=C\c2cccc(Br)c2)C(c2cccc(Br)c2)N1 (centres undefined) | > 100 |
| Clc1ccc(-c2nnc3sc4nc5ccccc5c-4nn23)c(Cl)c1 | > 100 |
| N#CC(C#N)=C1SC(=Nc2ccccc2)C(=Nc2ccccc2)N1c1ccccc1 | > 100 |
| Cc1ccc(C2=CC(=O)OC(C[P+](c3ccccc3)(c3ccccc3)c3ccccc3)(c3ccccc3)O2)cc1 (centres undefined) | 30 |
| O=C1c2cc(-c3ccccc3)cnc2S(=O)(=O)N1c1ccc(Br)cc1 | > 100 |
| CC(=NNC(=S)Nc1ccccc1)c1cccc(C(C)=NNC(=S)Nc2ccccc2)n1 | > 100 |
| C=CCc1cc(-c2nc(=S)[nH][nH]2)ccc1N=NNc1ccc(C(=O)O)cc1 | > 100 |
| CC(C)(C)[Si](C)(C)OCC1OC(n2ccc(=O)[nH]c2=O)C(O[Si](C)(C)C(C)(C)C)/C1=C/C#N (centres undefined) | > 100 |
| Nc1ccc(N=Nc2c(S(=O)(=O)O)cc3ccccc3c2S(=O)(=O)O)cc1 | > 100 |

Test system: HS 578T breast
Experiment: inhibition of tumour cell growth, NCI panel, 48 h

| Compound | TGI [µM] |
| --- | --- |
| Cc1nc(C)c(N2CCN([N+](=O)[O-])CC2)c(=O)[nH]1 | > 100 |
| Cc1nn(-c2ccccc2)c2c1C(c1cc3ccccc3nc1Cl)NC(=O)N2 (centres undefined) | 96.2 |
| Cc1cc(/N=C/c2ccc(N(C)C)cc2)n(-c2ccccc2)n1 | > 100 |
| C/C(C[n+]1ccccc1)=N\N=C(N)N | > 100 |
| O=[N+]([O-])C(=C(Nc1cccc2cccnc12)Nc1cccc2cccnc12)C(Cl)=C(Cl)Cl | > 100 |
| O=C1NC2c3c(I)sc(I)c3C(O)C2O1 (centres undefined) | > 100 |
| NCCCN1c2ccccc2Sc2ccc(Cl)cc21 | > 10 |
| CCOC(=O)c1cccc(N=Nc2nc[nH]c2/C=C/C(=O)OC)c1 | > 100 |
| Cc1cccc(C)c1NC(=O)C(Cc1c[nH]c2ccccc12)NC(=O)OCc1ccccc1 (centres undefined) | > 100 |
| S=C1NC2=C(CSC/C2=C\c2cccc(Br)c2)C(c2cccc(Br)c2)N1 (centres undefined) | > 100 |
| Clc1ccc(-c2nnc3sc4nc5ccccc5c-4nn23)c(Cl)c1 | > 100 |
| N#CC(C#N)=C1SC(=Nc2ccccc2)C(=Nc2ccccc2)N1c1ccccc1 | > 93 |
| Cc1ccc(C2=CC(=O)OC(C[P+](c3ccccc3)(c3ccccc3)c3ccccc3)(c3ccccc3)O2)cc1 (centres undefined) | 42.6 |
| O=C1c2cc(-c3ccccc3)cnc2S(=O)(=O)N1c1ccc(Br)cc1 | 70.6 |
| CC(=NNC(=S)Nc1ccccc1)c1cccc(C(C)=NNC(=S)Nc2ccccc2)n1 | > 100 |
| C=CCc1cc(-c2nc(=S)[nH][nH]2)ccc1N=NNc1ccc(C(=O)O)cc1 | > 100 |
| CC(C)(C)[Si](C)(C)OCC1OC(n2ccc(=O)[nH]c2=O)C(O[Si](C)(C)C(C)(C)C)/C1=C/C#N (centres undefined) | > 100 |
| Nc1ccc(N=Nc2c(S(=O)(=O)O)cc3ccccc3c2S(=O)(=O)O)cc1 | > 100 |

Test system: HT29 colon
Experiment: inhibition of tumour cell growth, NCI panel, 48 h

| Compound | TGI [µM] |
| --- | --- |
| Cc1nc(C)c(N2CCN([N+](=O)[O-])CC2)c(=O)[nH]1 | > 100 |
| Cc1nn(-c2ccccc2)c2c1C(c1cc3ccccc3nc1Cl)NC(=O)N2 (centres undefined) | 35.4 |
| Cc1cc(/N=C/c2ccc(N(C)C)cc2)n(-c2ccccc2)n1 | > 100 |
| C/C(C[n+]1ccccc1)=N\N=C(N)N | > 100 |
| O=[N+]([O-])C(=C(Nc1cccc2cccnc12)Nc1cccc2cccnc12)C(Cl)=C(Cl)Cl | > 100 |
| O=C1NC2c3c(I)sc(I)c3C(O)C2O1 (centres undefined) | > 100 |
| NCCCN1c2ccccc2Sc2ccc(Cl)cc21 | > 6.59 |
| CCOC(=O)c1cccc(N=Nc2nc[nH]c2/C=C/C(=O)OC)c1 | > 100 |
| Cc1cccc(C)c1NC(=O)C(Cc1c[nH]c2ccccc12)NC(=O)OCc1ccccc1 (centres undefined) | 68.7 |
